In US20250368646A1, “TRICYCLIC FUSED WRN INHIBITORS” (Nimbus Wadjet, Inc., priority 2024, published 2025):

What was measured:
[1] = test system: p21 induction in HCT 116 cells; assay: p21 induction in cells (in-cell western, p21/GAPDH ratio); assay type: cell-based; conditions: Homo sapiens; HCT 116 colon carcinoma cell line, 24 h compound incubation; percent activation vs internal reference WRN inhibitor; read-out: P21_EC50
Procedure: The colon carcinoma cell line HCT 116 was obtained from ATCC and cultured in growth medium consisting of Mccoy's 5A Medium (Gibco 16600108) supplemented with […] (Transgene FS201-02) and 100 units/mL penicillin-streptomycin (Gibco 15140122) and maintained at 37° C. under […]. On the day of seeding, 2,000 cells in 30 μL of culture media were plated per well to Poly-D-Lysine 384 Well Black Clear Plates (Biocoat 356663) and incubated overnight at 37° C. under 5% CO2. The following day, compounds were serially diluted in DMSO for a total of 11 test concentrations. The typical starting concentration of cpds was 10 μM with 2-fold dilutions. Next, 150 nL of diluted compound was added in duplicate to the assay plate, using an Echo 655 (Labcyte). The plate was centrifuged at 500 RPM for 1 min and then incubated at 37° C. under 5% CO2 for 24 h. After 24 h, medium was removed, and cells were fixed by adding 40 µL of 4% paraformaldehyde solution to each well and incubated for 20 min at room temperature. The plate was then washed 4 times with 100 μL per well of wash buffer (PBS with 0.1% Tween-20) using a microplate washer. Next, 30 μL of ice-cold methanol was added to each well and the plate was incubated at −20° C. for 10 min. The plate was washed 4 times with 100 μL per well of wash buffer by a microplate washer, then 30 μL per well of blocking buffer (Intercept PBS blocking buffer (LI-COR 927-70001) with 0.05% Tween-20) was added and the plate was incubated at room temperature with shaking for 2 h. Next, to each test well, 20 μL of primary antibody solution (p21 Waf1/CIP (12D1) Rabbit mAb (Cell Signaling Technologies 2947) diluted 1:1000 and GAPDH (D4C6R) Mouse mAb (Cell Signaling Technologies 97166) diluted 1:2000 in blocking buffer) was added and the plate was placed at 4° C., overnight. The following day, the plate was washed 5 times with 100 μL per well of wash buffer using a microplate washer for 5 min. 20 μL per well of secondary antibody (IRDye 680CW Goat anti-Mouse IgG (H+L) (LI-COR 926-68070) diluted 1: 2000 in Blocking Buffer and IRDye 800CW Goat anti-Rabbit IgG (H+L) (LI-COR 926-32211) diluted 1: 2000 in Blocking Buffer) was then added and the plate was stored for 2 h in the dark at room temperature with shaking. The plate was then washed 4 times with 100 μL per well of wash buffer again using a microplate washer. Finally, the p21 signal and the GAPDH signal were quantified using a LI-COR Odyssey CLx Imager machine reading at 800 nm and 700 nm, respectively. Each plate contained DMSO control (low control) and an internal reference WRN inhibitor (high control) respectively. For quantitation, the 800 nm/700 nm ratio was calculated for each well to give fold p21 induction and then percent activation for each compound well was calculated as follows (100×(ratio cpd well-ratio low control)/(ratio high control−ratio low control)). EC50 values for each compound were generated after non-linear regression curve fitting using commercially available software.

[2] = biological target: T1, human Werner helicase (WRN-BV08, amino acids 517-1235 with L1074F point mutation) (Homo sapiens, UniProt Q14191, L1074F); assay: ADP-Glo WRN helicase ATPase inhibition assay; assay type: biochemical; conditions: 0.15 nM WRN, 5 μM ATP, 0.1 nM DNA duplex; 15 minutes preincubation, 60 minutes at 25° C.; read-out: ADP-Glo_hWRN_IC50
T1 construct: [pFastBac1-WRN-(517-1235 L1074F)-TEV-8His]; 8xHis (C, cleaved yes); TEV cleavage site (ENLYFQG) (C); made in house; host or cells: Sf9 insect cells (baculovirus, pFastBac)
T1 sequence (Q14191 with tags, fused parts or gaps L1074F): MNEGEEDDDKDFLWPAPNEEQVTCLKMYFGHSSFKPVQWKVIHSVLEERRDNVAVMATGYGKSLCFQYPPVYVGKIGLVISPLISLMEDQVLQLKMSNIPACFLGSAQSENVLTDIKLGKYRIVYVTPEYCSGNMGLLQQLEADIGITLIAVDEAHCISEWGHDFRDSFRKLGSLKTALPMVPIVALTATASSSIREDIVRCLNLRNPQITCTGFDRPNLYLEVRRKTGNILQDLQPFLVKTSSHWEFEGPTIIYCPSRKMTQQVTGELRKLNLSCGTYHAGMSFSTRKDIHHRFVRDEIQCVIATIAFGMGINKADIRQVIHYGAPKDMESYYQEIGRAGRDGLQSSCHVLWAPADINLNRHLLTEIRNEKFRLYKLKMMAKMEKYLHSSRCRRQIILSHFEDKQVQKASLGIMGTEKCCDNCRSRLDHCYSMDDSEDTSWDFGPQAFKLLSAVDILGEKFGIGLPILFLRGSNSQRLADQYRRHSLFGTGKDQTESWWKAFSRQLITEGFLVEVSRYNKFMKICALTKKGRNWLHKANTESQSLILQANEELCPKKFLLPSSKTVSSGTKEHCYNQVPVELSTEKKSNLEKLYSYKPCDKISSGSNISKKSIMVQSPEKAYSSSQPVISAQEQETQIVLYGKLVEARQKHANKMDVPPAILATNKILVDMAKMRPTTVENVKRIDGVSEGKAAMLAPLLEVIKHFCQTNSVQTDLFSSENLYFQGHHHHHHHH
Excerpt: Bovine skin gelatin (BSG), dimethyl sulfoxide (DMSO), Pluronic F-127 and tris(2-carboxyethyl)phosphine hydrochloride solution (TCEP) were purchased from Sigma-Aldrich (St. Louis, MO) at the highest level of purity possible. Bicine buffer solution was purchased from Alfa Aesar (Tewksbury, MA) and compound NSC-617145 was purchased from Tocris (Minneapolis, MN). DNA duplex was synthesized at BGI (Shenzhen, China) and was composed of strand 1 with the sequence 5′-[…]-3′ (SEQ ID NO.: 1) and strand 2 with the sequence 5′-[…]-3′ (SEQ ID NO.: 2). DNA strands were annealed by heating to 95° C. for 5 minutes followed by slow cooling to room temperature. Compounds in 100% DMSO (0.1 μl) were spotted into a 384-well white polystyrene Optiplate-384 (Perkin Elmer; Waltham, MA) assay plate using a LabCyte Echo 550 (Agilent; Santa Clara, CA). DMSO (0.1 μl) was added to columns 12, rows A-H and column 24, rows I-P for the maximum signal control. Compound NSC-617145 (0.1 μl) was added to columns 12, rows I-P and 24, rows A-H for the minimum signal control (100% inhibition). Compounds/DMSO were preincubated for 15 minutes at 25° C. with 5 μl 2×WRN (BV08), prepared as described below, in assay buffer containing 20 mM Bicine (pH=7.5), 1 mM MgCl2, 10 mM KCl, 0.1% Pluronic F-127, 0.005% BSG, 1 mM TCEP. The reaction was initiated by the addition of 5 μl 2× substrate mixture in assay buffer and incubated for 60 minutes at 25° C. The final concentrations of the assay components were 0.15 nM WRN, 5 μM ATP, and 0.1 nM DNA duplex. The final DMSO concentration was 1% and the reference compound concentration (NSC-617145) used for the minimal signal control was 20 μM. The reaction was stopped by the addition of the ADP-Glo Kit components (Promega; Madison, WI) as directed and the relative luminescence units (RLU) were read on an Envision 2104 (Perkin Elmer; Waltham, MA). % inhibition calculation:
Where RLU=relative luminescence units, sample=signal in sample well, and MIN and MAX are the respective minimum and maximum signal controls.
Four-Parameter IC50 Fit Equation:
Where top and bottom are normally allowed to float but may be fixed at 100 or 0 respectively in a 3-parameter fit. Y is the % inhibition and X is the compound concentration.
Molecular Biology and virus production. The DNA encoding human Werner helicase (Uniprot Q14191, amino acids 517-1235 with L1074F point mutation) was generated with codon-optimization for E. coli expression and subcloned into the pFastBac vector with a TEV cleavable 8×His tag (SEQ ID NO: 5) (WRN-BV08). The baculovirus from the expression plasmid WRN-BV08 was generated from transfection and amplification following the manufacturer's instructions.
Sf9 cells grown in SF900II media were infected with 1:200 WRN-BV08 P2 virus and incubated for protein expression for 72 h at 27° C. The WRN protein was purified using the following protocol. The cell pellets were thawed and resuspended in buffer A (50 mM Tris, pH 7.5, 500 mM NaCl, 1 mM TCEP, 10% Glycerol) supplemented with 0.5% CHAPS, 1 mM PMSF, […] Leupeptin, 1 μg/ml Pepstatin, and the Pierce Universal Nuclease and cocktail tablet. Cleared lysates were loaded onto a Ni Sepharose™ excel column and washed with buffer A and bound protein was eluted with buffer A supplemented with 300 mM imidazole. The eluted protein was dialyzed against buffer A and digested by His-tagged TEV (1:5 ratio) overnight at 4° C. ZnCl2 was added into the sample at final 15 μM before loading onto a second Ni Sepharose™ excel column. Untagged WRN protein was eluted from the column with buffer A supplemented with 20 mM imidazole, dialyzed overnight into buffer B (50 mM Tris, pH 7.5, 1 mM TCEP, 10% Glycerol) supplemented with 150 mM NaCl and loaded onto a Heparin column. Proteins were eluted with a step gradient of buffer B supplemented with 150 mM, 200 mM, 300 mM and 500 mM NaCl. […]

SMILES	EC50 [1] [nM]	IC50 [2] [nM]
COc1cc(-n2nc3c(=O)c(N4CCN(C(=O)c5ncnc(C)c5O)[C@H]5CC[C@@H]54)c4n(c3n2)[C@@H](C(=O)Nc2ccc(C(F)(F)F)cc2Cl)C[C@@H]4C)ccn1 (single isomer, unassigned) [Compound I-14]	≤ 500	5 to 50
COc1cc(-n2nc3c(=O)c(N4CCN(C(=O)c5ncnc(C)c5O)[C@H]5CC[C@@H]54)c4n(c3n2)[C@@H](C(=O)Nc2ccc(C(F)(F)F)cc2F)C[C@@H]4C)ccn1 (single isomer, unassigned) [Compound I-15]	≤ 500	≤ 5
COc1cc(-n2nc3c(=O)c(N4CCN(C(=O)c5ncnc(C)c5O)[C@H]5CC[C@@H]54)c4n(c3n2)[C@H](C(=O)Nc2ccc(C(F)(F)F)cc2F)C[C@H]4C)ccn1 (single isomer, unassigned) [Compound I-16]	500 to 2000	100 to 500
Cc1ncnc(C(=O)N2CCN(c3c4n(c5nn(C6=CCOCC6)nc5c3=O)[C@@H](C(=O)Nc3ccc(C(F)(F)F)cc3Cl)C[C@H]4C)[C@H]3CC[C@@H]32)c1O (single isomer, unassigned) [Compound I-23]	≤ 500	≤ 5
Cc1ncnc(C(=O)N2CCN(c3c4n(c5nn(C6=CCOCC6)nc5c3=O)[C@H](C(=O)Nc3ccc(C(F)(F)F)cc3Cl)C[C@@H]4C)[C@H]3CC[C@@H]32)c1O (single isomer, unassigned) [Compound I-24]	> 5000	> 500
Cc1ncnc(C(=O)N2CCN(c3c4n(c5nn(C6=CCOCC6)nc5c3=O)[C@H](C(=O)Nc3ccc(C(F)(F)F)cc3Cl)C[C@H]4C)[C@H]3CC[C@@H]32)c1O (single isomer, unassigned) [Compound I-25]	> 5000	> 500

Second part, the molecule after the results:

EC50 [1] [nM]	IC50 [2] [nM]	SMILES
≤ 500	≤ 5	Cc1cnc2c(n1)c(=O)c(N1CCN(C(=O)c3ncnc(C)c3O)[C@H]3CC[C@@H]31)c1n2[C@H](C(=O)Nc2ccc(C(F)(F)F)cc2Cl)C[C@H]1C (single isomer, unassigned) [Compound I-11]
> 5000	> 500	Cc1cnc2c(n1)c(=O)c(N1CCN(C(=O)c3ncnc(C)c3O)[C@H]3CC[C@@H]31)c1n2[C@@H](C(=O)Nc2ccc(C(F)(F)F)cc2Cl)C[C@@H]1C (single isomer, unassigned) [Compound I-12]
≤ 500	≤ 5	Cc1nc2c(=O)c(N3CCN(C(=O)c4ncnc(C)c4O)[C@H]4CC[C@@H]43)c3n(c2nc1C)[C@@H](C(=O)Nc1ccc(C(F)(F)F)cc1Cl)C[C@@H]3C (single isomer, unassigned) [Compound I-17]
≤ 500	≤ 5	Cc1nc2c(=O)c(N3CCN(C(=O)c4ncnc(C)c4O)[C@H]4CC[C@@H]43)c3n(c2nc1C)[C@H](C(=O)Nc1ccc(C(F)(F)F)cc1Cl)C[C@@H]3C (single isomer, unassigned) [Compound I-18]
500 to 2000	50 to 100	Cc1nc2c(=O)c(N3CCN(C(=O)c4ncnc(C)c4O)[C@H]4CC[C@@H]43)c3n(c2nc1C)[C@@H](C(=O)Nc1ccc(C(F)(F)F)cc1Cl)C[C@H]3C (single isomer, unassigned) [Compound I-19]
> 5000	> 500	Cc1nc2c(=O)c(N3CCN(C(=O)c4ncnc(C)c4O)[C@H]4CC[C@@H]43)c3n(c2nc1C)[C@H](C(=O)Nc1ccc(C(F)(F)F)cc1Cl)C[C@H]3C (single isomer, unassigned) [Compound I-20]
≤ 500	≤ 5	Cc1ncnc(C(=O)N2CCN(c3c4n(c5nn(C6CC6)nc5c3=O)[C@@H](C(=O)Nc3ccc(C(F)(F)F)cc3Cl)C[C@H]4C)[C@H]3CC[C@@H]32)c1O (single isomer, unassigned) [Compound I-21]
> 5000	100 to 500	Cc1ncnc(C(=O)N2CCN(c3c4n(c5nn(C6CC6)nc5c3=O)[C@H](C(=O)Nc3ccc(C(F)(F)F)cc3Cl)C[C@@H]4C)[C@H]3CC[C@@H]32)c1O (single isomer, unassigned) [Compound I-22]
